For orientation: IC50 means the concentration at which inhibition is half-maximal. By inhibition is commonly meant the drop in the measured response relative to a control, in per cent. Broadly, the GI50 is the concentration at which growth is held to half of that of the control. What is called fraction unbound is the share of the substance not bound to proteins or other matrix. Low readings indicate extensive binding, high ones weak binding.

Activity calls are given as the source filed them. No cut-off for these calls is given here.

Results on one molecule are retold here after ChEMBL document CHEMBL4321846, “Discovery of a Potent and Selective Oral Inhibitor of ERK1/2 (AZD0364) That Is Efficacious in Both Monotherapy and Combination Therapy in Models of Nonsmall Cell Lung Cancer (NSCLC)” (J Med Chem, 2019).

In data set [1] the target is T1, Mitogen-activated protein kinase 1 (Homo sapiens, UniProt P28482). Briefly: Inhibition of MEK U911-activated ERK2 (unknown origin) using ERKtide as substrate preincubated for 20 mins followed by substrate addition in presence of ATP at Km concentration after 20 mins by rapidfire mass spectrometry analysis.
Data set [2] has as its target T1, Mitogen-activated protein kinase 1. Briefly: Inhibition of MEK U911-activated ERK2 (unknown origin) using ERKtide as substrate preincubated for 20 mins followed by substrate addition in presence of 1 mM ATP after 10 mins by rapidfire mass spectrometry analysis.
In data set [3] the target is Mitogen-activated protein kinase; ERK1/ERK2 (Homo sapiens, UniProt P27361+P28482). Briefly: Inhibition of ERK1/2 in human A375 cells assessed as inhibition of ERK phosphorylation after 2 hrs. Format: cell-based.
Data set [4] has as its target Dual specificity mitogen-activated protein kinase kinase 1 (Homo sapiens) (UniProt Q02750). Briefly: Inhibition of recombinant full length His-tagged human MEK1 expressed in baculovirus expression system at 1 uM relative to control.
For data set [5], the target named is Mitogen-activated protein kinase 15 (Homo sapiens) (UniProt Q8TD08). Briefly: Binding affinity to recombinant human N-terminal 4xFLAG-tagged/C-terminal His8-fused ERK7 N-terminal domain (M1 to R354 residues) expressed in Sf9 insect cells.
Data set [6] has as its target NUAK family SNF1-like kinase 1 (Homo sapiens, UniProt O60285). Briefly: Inhibition of recombinant full length human His-tagged ARK5 expressed in baculovirus expression system.
In data set [7] the target is Dual specificity mitogen-activated protein kinase kinase 1 (Homo sapiens) (UniProt Q02750). Briefly: Inhibition of recombinant full length His-tagged human MEK1 expressed in baculovirus expression system at > 10 uM.
The target in data set [8] is Cyclin-dependent kinase 2/cyclin E1 (Homo sapiens, UniProt P24941). Briefly: Inhibition of human full length C-terminal His6-tagged Cdk2/human full length N-terminal GST-tagged Cyclin E expressed in baculovirus infected Sf21 insect cells after 1 hr by electromobility shift assay.
Data set [9] concerns A-375. Briefly: Antiproliferative activity at human A375 cells expressing BRAF V600E mutant assessed as growth inhibition. It counts as functional.
Data set [10] concerns RAF proto-oncogene serine/threonine-protein kinase (Homo sapiens), P04049 [Y340D,Y341D]. Briefly: Inhibition of recombinant human GST-tagged c-RAF1 Y340D/Y341D mutant catalytic domain expressed in baculovirus expression system at 1 uM by GST-tagged full length human inactive ERK2 expressed in baculovirus expression system coupled cascade assay relative to control.
The target in data set [11] is Cyclin-dependent kinase 5/CDK5 activator 1 (Homo sapiens) (UniProt Q00535+Q15078). Briefly: Inhibition of recombinant full length human GST/His-tagged CDK5/p25 expressed in baculovirus expression system at 1 uM relative to control.
Data set [12] can be described thus: Fraction unbound in mouse plasma. It counts as ADME, cell-free.
Data set [13] is described as follows: Volume of distribution at steady state in dog. Format: ADME, Canis lupus familiaris. The conditions noted are these: in vivo, read-out: Vdss.
Data set [14] deals with T1, Mitogen-activated protein kinase 1.
Data set [15] has the same target. This is another data set of the same source.

T1 sequence (P28482 whole entry): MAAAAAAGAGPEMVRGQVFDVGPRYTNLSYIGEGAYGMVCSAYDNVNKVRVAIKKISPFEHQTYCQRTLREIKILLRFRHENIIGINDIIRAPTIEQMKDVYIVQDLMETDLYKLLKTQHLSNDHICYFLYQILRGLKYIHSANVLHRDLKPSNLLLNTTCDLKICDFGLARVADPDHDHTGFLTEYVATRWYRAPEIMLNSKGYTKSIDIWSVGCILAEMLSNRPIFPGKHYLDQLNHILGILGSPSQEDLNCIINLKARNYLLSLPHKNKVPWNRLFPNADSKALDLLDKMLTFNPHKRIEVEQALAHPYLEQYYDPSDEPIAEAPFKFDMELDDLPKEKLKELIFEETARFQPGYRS
Chain of Dual specificity mitogen-activated protein kinase kinase 1 (Homo sapiens) (Q02750 whole entry, the tested form may be a part): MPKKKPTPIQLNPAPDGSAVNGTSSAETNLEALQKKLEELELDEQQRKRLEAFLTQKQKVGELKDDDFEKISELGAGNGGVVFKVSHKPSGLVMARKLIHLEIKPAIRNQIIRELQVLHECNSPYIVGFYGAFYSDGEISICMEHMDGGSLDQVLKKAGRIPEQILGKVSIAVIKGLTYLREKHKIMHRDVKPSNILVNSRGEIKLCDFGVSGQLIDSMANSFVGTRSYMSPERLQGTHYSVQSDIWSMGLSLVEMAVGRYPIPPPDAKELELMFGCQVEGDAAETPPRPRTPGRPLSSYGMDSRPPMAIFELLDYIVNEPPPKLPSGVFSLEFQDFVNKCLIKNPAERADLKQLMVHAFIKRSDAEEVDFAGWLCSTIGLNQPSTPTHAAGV
Chain of Cyclin-dependent kinase 5/CDK5 activator 1 (Homo sapiens) (Q00535 whole entry): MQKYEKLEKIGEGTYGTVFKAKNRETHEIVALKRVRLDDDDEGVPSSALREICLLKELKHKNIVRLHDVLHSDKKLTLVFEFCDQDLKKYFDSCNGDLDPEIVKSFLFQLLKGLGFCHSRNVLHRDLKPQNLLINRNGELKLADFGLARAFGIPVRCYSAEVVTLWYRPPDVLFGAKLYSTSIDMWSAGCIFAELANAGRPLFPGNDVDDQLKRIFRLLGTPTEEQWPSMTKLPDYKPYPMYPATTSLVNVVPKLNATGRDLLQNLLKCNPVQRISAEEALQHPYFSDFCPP
Chain of Cyclin-dependent kinase 5/CDK5 activator 1 (Homo sapiens) (Q15078 99-307 partner limits assumed): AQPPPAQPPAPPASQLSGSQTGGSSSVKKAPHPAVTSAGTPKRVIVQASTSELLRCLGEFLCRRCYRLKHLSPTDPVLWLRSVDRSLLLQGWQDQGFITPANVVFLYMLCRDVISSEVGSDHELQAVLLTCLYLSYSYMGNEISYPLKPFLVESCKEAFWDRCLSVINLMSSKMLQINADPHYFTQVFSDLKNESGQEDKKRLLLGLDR
Chain of NUAK family SNF1-like kinase 1 (O60285 whole entry): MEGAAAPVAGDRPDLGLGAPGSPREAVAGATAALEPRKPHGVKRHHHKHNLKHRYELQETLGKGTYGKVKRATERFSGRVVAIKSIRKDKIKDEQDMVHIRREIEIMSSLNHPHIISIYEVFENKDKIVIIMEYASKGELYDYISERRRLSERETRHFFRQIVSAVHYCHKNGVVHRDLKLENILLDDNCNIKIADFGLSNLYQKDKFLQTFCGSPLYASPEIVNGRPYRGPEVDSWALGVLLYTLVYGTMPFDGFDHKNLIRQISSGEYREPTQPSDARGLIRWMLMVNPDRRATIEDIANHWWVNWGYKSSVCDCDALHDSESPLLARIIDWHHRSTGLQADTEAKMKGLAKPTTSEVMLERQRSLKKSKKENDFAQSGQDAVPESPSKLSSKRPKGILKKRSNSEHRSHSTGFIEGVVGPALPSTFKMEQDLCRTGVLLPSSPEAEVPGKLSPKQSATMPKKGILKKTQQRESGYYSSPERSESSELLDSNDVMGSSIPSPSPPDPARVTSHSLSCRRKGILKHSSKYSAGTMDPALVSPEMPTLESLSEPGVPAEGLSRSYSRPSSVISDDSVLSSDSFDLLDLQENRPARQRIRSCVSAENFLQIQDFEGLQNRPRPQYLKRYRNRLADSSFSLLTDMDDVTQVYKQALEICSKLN
Chain of RAF proto-oncogene serine/threonine-protein kinase (Homo sapiens), P04049 [Y340D,Y341D] (P04049 whole entry Y340D/Y341D, the tested form may be a part): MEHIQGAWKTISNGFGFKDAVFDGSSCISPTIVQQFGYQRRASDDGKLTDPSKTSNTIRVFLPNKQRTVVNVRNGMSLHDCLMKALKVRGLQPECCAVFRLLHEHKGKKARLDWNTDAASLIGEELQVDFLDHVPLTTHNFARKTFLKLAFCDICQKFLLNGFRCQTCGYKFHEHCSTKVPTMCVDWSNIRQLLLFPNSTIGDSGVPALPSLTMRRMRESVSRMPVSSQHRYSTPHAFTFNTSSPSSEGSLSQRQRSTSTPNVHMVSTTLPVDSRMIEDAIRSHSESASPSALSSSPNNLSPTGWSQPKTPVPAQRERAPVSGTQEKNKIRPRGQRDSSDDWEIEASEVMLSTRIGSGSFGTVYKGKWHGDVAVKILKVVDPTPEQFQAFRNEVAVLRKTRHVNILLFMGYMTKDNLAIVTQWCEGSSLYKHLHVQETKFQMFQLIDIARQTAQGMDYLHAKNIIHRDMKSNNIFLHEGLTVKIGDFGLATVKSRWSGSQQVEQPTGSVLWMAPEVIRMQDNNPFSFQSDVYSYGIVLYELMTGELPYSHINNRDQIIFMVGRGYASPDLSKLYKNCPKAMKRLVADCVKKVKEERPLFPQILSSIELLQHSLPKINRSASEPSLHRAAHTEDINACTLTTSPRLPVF
Chain of Mitogen-activated protein kinase 15 (Homo sapiens) (Q8TD08 whole entry, the tested form may be a part): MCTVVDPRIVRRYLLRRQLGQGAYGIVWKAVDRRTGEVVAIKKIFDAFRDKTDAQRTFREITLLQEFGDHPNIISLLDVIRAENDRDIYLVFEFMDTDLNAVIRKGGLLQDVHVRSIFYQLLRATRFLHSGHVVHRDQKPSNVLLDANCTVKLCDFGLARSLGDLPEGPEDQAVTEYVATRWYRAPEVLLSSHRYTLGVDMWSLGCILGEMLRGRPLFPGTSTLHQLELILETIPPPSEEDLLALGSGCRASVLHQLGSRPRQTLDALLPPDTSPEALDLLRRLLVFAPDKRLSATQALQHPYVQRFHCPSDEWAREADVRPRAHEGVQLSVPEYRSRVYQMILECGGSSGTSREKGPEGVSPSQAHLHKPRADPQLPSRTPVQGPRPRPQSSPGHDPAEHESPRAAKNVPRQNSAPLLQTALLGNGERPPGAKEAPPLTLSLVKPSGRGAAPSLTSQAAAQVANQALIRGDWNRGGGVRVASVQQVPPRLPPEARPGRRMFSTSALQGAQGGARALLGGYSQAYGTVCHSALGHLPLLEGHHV

As for `COC[C@H]1Cn2cc(-c3nc(Nc4ccnn4C)ncc3C)nc2C(=O)N1Cc1ccc(F)c(F)c1` [TIZATERKIB], the IC50 was below 0.3 nM in data set [1]; 0.66 nM in [2]; 1.7 nM in data set [3]; 400 nM in data set [6]; 1000 nM in data set [8]. Also, the inhibition in data set [4] is -2.5%; in [10], 101%; in data set [11] it was 81%. In data set [5], the Activity turned out to be 0.03 µM. In addition, the inhibition entry in data set [7] is “inactive”. Moreover, the GI50 in data set [9] is 60 nM. Besides, the fraction unbound in [12] is 0.12. The Vd in data set [13] was 1.2 L/kg. In data set [14], this molecule returned a Ka of 6.5 ×10⁻⁵ /M/s. Also, the Kdiss in data set [15] was found to be 4.5 ×10⁻⁵ /s.
